{"source": "patent US20220315888A1", "about": "“CULTURE METHOD FOR RETINAL ORGANOIDS” (University of Newcastle Upon Tyne, priority 2019, published 2022)", "format_in_all_cases": "cell-based, human", "key": {"[1]": {"tested_on": "Rhodopsin expression in retinal organoids derived from hESCs", "assay": "Immunohistochemistry quantification of Rhodopsin+ cells (rods) at day 150", "settings": "addition day 90-120, organoids at day 150, compared to vehicle control", "experimental": "Human Pluripotent Stem Cells differentiation to retinal organoids Retinal organoids were differentiated from the CRX-GFP H9 human ESC cell line using a feeder-free system. ESCs were expanded in […] Technologies, 05850) at 37° C. and 5% CO2 on 6 well plates pre-coated with Low Growth Factor Matrigel (Corning, 354230). The retinal organoids were generated following a protocol described in Collin et al., 2019 [25] with addition of various supplements, which are shown in FIG. 1. […] DAPT was only added from day 30-42 (for day 30-60 combined addition with RA from day 30-60), day 60-72 (for the combined addition with RA from day 60-90), day 90-102 (for the combined addition with RA from day 90-120) and day 30-42 (for the combined addition with RA from day 30-120). Retinal organoids were collected on day 150 and fixed in 2% PFA for 30 minutes, followed by three washes in Phosphate-buffered saline (PBS), incubated overnight in 30% sucrose in PBS, embedded in Optical Cutting medium (OCT) ([…], UK) and frozen at -20° C. Ten-micrometre cryostat sections were collected using a Leica Cm1860 cryostat (Leica, Germany) onto Superfrost Plus slides and stored at -20° C. in slide boxes prior to immunostaining. Cryosections were air-dried, washed several times in PBS and incubated in blocking solution (10% normal goat serum, 0.3% Triton-X-100 in PBS) for one hour at room temperature. Slides were incubated with the appropriate primary antibody overnight at 4° C. (Table 2). After rinsing with PBS, sections were incubated with the secondary antibody for 2 hours at room temperature. Alexa Fluor 647 and 546 secondary antibodies (InvitrogenMolecular Probes) were used at a 1:1000 dilution. Negative controls were carried out by omitting the primary antibody. Afterwards, sections were washed three times in PBS and mounted with Vectashield (Vector Laboratories, Burlingame, Calif.) containing Hoechst (LifeTechnologies, UK). Images were captured using an Axio Imager upright microscope with Apotome (Zeiss, Germany) structured illumination fluorescence using 20× objective and 63× oil objective operated with AxioVision software. Final images are presented as a maximum projection and adjusted for brightness and contrast in Adobe Photoshop (Adobe Systems). Cell image quantitation was performed using the MATLAB software (Mathworks, MA) following the protocol described in Dorgau et al., 2019 [26]. A minimum of eight individual retinal organoids were analysed for each condition. All results were further analysed using Microsoft Excel and Prism (GraphPad, USA)."}, "retinal organoids": {"tested_on": "retinal organoids", "assay": "Retinal organoid lamination and tissue architecture at day 150", "settings": "day 150 of differentiation", "experimental": "(§1) Human Pluripotent Stem Cells differentiation to retinal organoids Retinal organoids were differentiated from the CRX-GFP H9 human ESC cell line using a feeder-free system. ESCs were expanded in mTeSR™1 (StemCell Technologies, 05850) at 37° C. and 5% CO2 on 6 well plates pre-coated with Low Growth Factor Matrigel (Corning, 354230). The retinal organoids were generated following a protocol described in Collin et al., 2019 [25] with addition of various supplements, which are shown in FIG. 1.\nThe tested supplements include Retinoic Acid (RA) (0.5 μM or 1 μM Sigma-Aldrich UK), 9-cis-retinal (0.5 μM, Sigma-Aldrich UK), 11-cis-retinal (0.5 μM, BOC Sciences), Levodopa (0.5 μM, Sigma-Aldrich UK), Triiodothyronine (T3) (20 ng/ml or 40 ng/ml, Sigma-Aldrich) and DAPT (10 μM Sigma-Aldrich UK) singly or in combination with each other from day 18 of differentiation for specific durations (day 18 onwards, day 30-60, day 60-90, day 90-120 and day 30-120), except for DAPT (FIG. 1). […]\n(§2) Images were captured using an Axio Imager upright microscope with Apotome (Zeiss, Germany) structured illumination fluorescence using 20× objective and 63× oil objective operated with AxioVision software. […]"}, "[2]": {"tested_on": "OPN1MW/LW (L/M cones) expression in retinal organoids derived from hESCs", "assay": "Immunohistochemistry quantification of OPN1MW/LW+ cells (L/M cones) at day 150", "settings": "addition day 30-120; organoids at day 150; compared to vehicle control", "experimental": "as §1, with “1. […]” for “1.”\nas §2\nCell image quantitation was performed using the MATLAB software (Mathworks, MA) following the protocol described in Dorgau et al., 2019 [26]. A minimum of eight individual retinal organoids were analysed for each condition. All results were further analysed using Microsoft Excel and Prism (GraphPad, USA)."}}, "note": "“Also recorded” adds a separate entry of the source."}
{"compound": "CC1=C(/C=C/C(C)=C\\C=C\\C(C)=C\\C=O)C(C)(C)CCC1", "note": "[9-cis-retinal]", "values": [{"measurement": "Rhodopsin+ cells (rods), immunohistochemistry quantification", "setting": "[1]", "value": "lower"}]}
{"compound": "CC1=C(/C=C/C(C)=C/C=C/C(C)=C/C=O)C(C)(C)CCC1", "note": "[11-cis-retinal]", "values": [{"measurement": "Rhodopsin+ cells (rods), immunohistochemistry quantification", "setting": "[1]", "value": "lower; also recorded: reduction"}]}
{"compound": "C[C@H](NC(=O)Cc1cc(F)cc(F)c1)C(=O)N[C@H](C(=O)OC(C)(C)C)c1ccccc1", "note": "[DAPT]", "values": [{"measurement": "Effect on tissue architecture and lamination of the retinal organoids", "setting": "retinal organoids", "value": "did not interfere"}]}
{"compound": "CC1=C(/C=C/C(C)=C/C=C/C(C)=C/C(=O)O)C(C)(C)CCC1", "note": "[RA, all-trans-retinoic acid]", "values": [{"measurement": "OPN1MW/LW+ cells (L/M cones), IHC quantification", "setting": "[2]", "value": "significantly enhanced"}, {"measurement": "Rhodopsin+ cells (rods), immunohistochemistry quantification", "setting": "[1]", "value": "reduction"}, {"measurement": "Rhodopsin+ cells (rods), immunohistochemistry quantification", "setting": "[1]; listed as RA alone", "value": "lower"}]}
